Experimental data as given in publication PMC9916658, “Design and Synthesis of New Quinazolin-4-one Derivatives with Negative mGlu7 Receptor Modulation Activity and Antipsychotic-Like Properties” (International Journal of Molecular Sciences, 2023).
≈ marks a conversion by molar mass, not a printed value. Read-outs that look alike come from different tables or passages of the source.

Legend:
[1] = Metabolic stability in mouse microsomal fraction; assay type: in vitro ADME; details: for MML (metabolic stability liver microsome mouse): 1 µM, mouse microsomes 0.3 mg/mL, NADPH-regenerating system; for microsomal CLint at 1 µM: pH 7.4, mouse liver microsomes
Protocol: A metabolic stability assay was performed using a mouse microsomal fraction (phase I of metabolism) obtained from XenoTech (Kansas City, MO, USA). Compounds for metabolic stability testing were prepared as 10 mM stock solutions in DMSO. Compounds were incubated in triplicate at a 1 µM initial concentration with the microsomal fraction in the presence of NRS (NADPH-regenerating system, 1.3 mM). The final microsomal incubation (0.3 mg/mL) contained the components mentioned below in a pH 7.4 phosphate buffer. Control incubations were conducted without cofactors. The reference compound verapamil was used as a positive control. Incubations were carried out for 1 h on 96-well plates using a heated (+37 °C) orbital shaker (350 rpm). After incubation, the reaction was quenched through the addition of cold acetonitrile. The plate containing the samples was centrifuged at 2000 rpm for 15 min at 4 °C. The supernatants were analyzed using LC–MS.
The HPLC–MS consisted of a Dionex, Ultimate 3000 HPLC, and a Bruker Daltonics amaZon SL mass spectrometer (ESI-IT). The conditions were as follows: Column HPLC Ascentis Express C18 (5 cm × 2.1 mm, 2.7 µm) and an injection volume of 20 µL. An acetonitrile gradient was used with 0.1% formic acid in water at a constant flow rate of 1 mL/min. The programming was as follows: 0–0.5 min 5% ACN, 0.5–3.0 increase of 5–95%, 3.0–3.3 remaining at 95% ACN, 3.3–3.4 min decrease of 95–5% ACN, and 3.4–4.0 min 5% ACN. Samples were analyzed in a single-ion monitoring scan mode in positive mode. The conditions of the main parameters were as follows: a trap drive of 48.2, capillary exit voltage of 140.0 V, dry temperature (set) of 300 °C, nebulizer pressure (set) of 40.00 psi, dry gas flow (set) of 9.00 L/min HV capillary voltage of −4500 V, HV end-plate offset voltage of −500 V.
The percent loss of compounds was calculated through the normalization of the peak area against time 0, where the peak area at T0 was 100%. The elimination rate constant (h) was determined from the plot of ln (percent loss of compound) as a time function and equal to the minor value of the linear curve slope.

[2] = Pharmacokinetics and brain uptake in mice after i.p. administration; assay type: in vivo, mouse (Albino Swiss); details: 10 mg/kg i.p.; for Tmax / AUC(0-t) / half-life / Cmax: ip
Protocol: Compounds were administered to mice at a dose of 10 mg/kg i.p. Plasma and tissue samples were collected at 0.25, 0.50, 1.0, 2.0, 4.0, 6.0, and 24 h. Plasma and tissue samples from all drug-treated animals were thawed at room temperature prior to use. The standard protocol for sample preparation was used: 200 μL of acetonitrile was added to the Eppendorf tubes with 50 μL of studied plasma samples or tissue homogenate. Samples were mixed for 5 min on a mixer at 25 °C and 1400 rpm. The tubes were then centrifuged at 2000× g for 15 min at 4 °C. A total of 180 μL of each supernatant was transferred to a plate well. Finally, each sample was injected into the LC–MS column. Calibration curve serial dilution method: Plasma was spiked with a standard at different concentrations. Acetonitrile was added. After mixing and centrifugation, the supernatant was collected.
Chromatographic conditions. Plasma and tissue samples from all drug-treated animals at selected time points were analyzed using a previously developed nonvalidated LC–MS/MS method. […] The LC–MS analysis was carried out on a Bruker amaZon SL mass spectrometer using the positive/negative ion ESI mode. Chromatographic separation was achieved on an Ascentis Express C18 column (5 cm × 2.1 mm, 2.7 μM, Supelco Technologies) at room temperature with a thermostatted column oven. A gradient elution of eluents A (acetonitrile (LiChrosolv, Reag. Ph Eur) + 0.1% formic acid (Sigma Aldrich, 98–100%)) and B (water + 0.1% formic acid) were used for separation. The flow rate was set at 1 mL/min. The injection volume was 20 μL, and the time of injection was 4 min.
Mass spectrometric conditions. An ion trap mass spectrometer (Bruker amaZon SL, Bruker, Bremen, Germany) was equipped with an electrospray source operating in the positive/negative ion mode. Data were collected and processed using Bruker Quant Analysis (Bruker, Bremen, Germany) software. A quantification of the analytes was performed in the SIM mode.

[3] = test system: mock T-REx 293 cell line; assay: Off-target T-REx screening, forskolin-induced cAMP in untransfected cells; assay type: cell-based
Description: Off-target (T-Rex screening)
Figure S5. Activity of compounds ALX-065 and ALX-171 in forskolin-induced cAMP accumulation in
untransfected cells of the T-REx 293 line. Similar to reference mGlu7 receptor ADX71743, no effects of the tested […]

[4] = Kinetic solubility assay in HBSS buffer; assay type: physicochemical; details: aqueous buffer, kinetic from dmso stock; Hanks-HEPES (HBSS buffer), pH 7.4; read-out: KS (kinetic solubility)
Protocol: The kinetic solubility assay was performed to determine the solubility of the compounds in the in vitro assay conditions. The assay investigated the solubility based on the precipitation process in the HBSS buffer. For the preparation of the assay buffer, the following compounds were dissolved in 800 mL purified water: • − 130 mM sodium chloride, NaCl (7.600 g); • − 5.4 mM potassium chloride, KCl (0.403 g); • − 0.8 mM magnesium sulfate, MgSO4 × 7H2O (0.197 g); • − 0.9 mM sodium phosphate monobasic, NaH2PO4 × 2H2O (0.140 g); • − 25 mM D-glucose (4.500 g); • − 20 mM HEPES sodium salt (5.210 g).
The buffer was adjusted to pH 7.4, and the following compound was added to the mixture: • − 1.8 mM calcium chloride, CaCl2 × 2H2O (0.265 g).
The total volume was adjusted to 1000 mL.
The investigated compounds were diluted (in triplicate) with the HBSS buffer at pH 7.4 to a final concentration of 500 μM.
The mixture was shaken on a filter plate at 500 rpm for 1.5 h at RT. After incubation, the filter plate was placed inside a vacuum manifold and filtrated. Samples were collected and the concentration of the filtrate was determined spectrophotometrically by measuring the UV–VIS absorption spectrum. Concentrations were calculated based on equations resulting from the calibration curves (in duplicates, 8 calibration points, dilution Factor ×2, 500 µM → 3.91 µM, including blank sample).

[5] = Albino Swiss, mouse, plasma and brain, mice, read-out: Tmax (plasma and brain) (converted)
[6] = mouse Albino Swiss, brain, read-out: AUC0-t, brain
[7] = mouse Albino Swiss, brain, read-out: T1/2, brain (converted)
[8] = mouse Albino Swiss, brain, read-out: Tmax, brain
[9] = mouse Albino Swiss, plasma, read-out: AUC0-t, plasma
[10] = mouse Albino Swiss, plasma, read-out: T1/2, plasma (converted)
[11] = mouse Albino Swiss, plasma, read-out: Tmax, plasma

MML (metabolic stability liver microsome mouse) [1]	microsomal CLint at 1 µM [1]	Tmax [2, 5]	AUC(0-t) [2, 6]	half-life [2, 7]	Tmax [2, 8]	Cmax ([2]; mouse Albino Swiss, plasma)	AUC(0-t) [2, 9]	half-life [2, 10]	Tmax [2, 11]	Cmax, brain ([2]; mouse Albino Swiss, brain)	solubility kinetic at 1.5 h [4]	Compound	effect on forskolin-induced cAMP accumulation in untransfected cells [3]
0.81 % remaining after 60 min	268 µL/min/mg	15 min	1.32 µM·h	29.4 min	15 min	2.28 µM	1.99 µM·h	78.6 min	15 min	1.81 µM/L	6.88 µM (≈ 2.39 µg/mL)	Cn1c(-c2ccccc2Cl)nc2ccc(-c3ccccc3)cc2c1=O [ALX-065, 2-(2-chlorophenyl)-3-methyl-6-phenylquinazolin-4(3H)-one]	no effects
54.01 % remaining after 60 min	34.2 µL/min/mg	15 min	13.8 µM·h	334 min	15 min	4.46 µM	13.4 µM·h	312 min	30 min	2.52 µM/L	15.2 µM (≈ 6.2 µg/mL)	COc1cccc(-c2ccc3nc(-c4ccccc4Cl)n(C)c(=O)c3c2)c1OC [ALX-171, 2-(2-chlorophenyl)-6-(2,3-dimethoxyphenyl)-3-methylquinazolin-4(3H)-one]	no effects

Compound	MML (metabolic stability liver microsome mouse) [1]	microsomal CLint at 1 µM [1]	Tmax [2, 5]	AUC(0-t) [2, 6]	half-life [2, 7]	Tmax [2, 8]	Cmax ([2]; mouse Albino Swiss, plasma)	AUC(0-t) [2, 9]	half-life [2, 10]	Tmax [2, 11]	Cmax, brain ([2]; mouse Albino Swiss, brain)	solubility kinetic at 1.5 h [4]	effect on forskolin-induced cAMP accumulation in untransfected cells [3]
CCc1nc2c(o1)CC(c1ccc(C)cc1C)CC2=O (centres unmarked) [ADX71743, reference compound]	0.01 % remaining after 60 min	–	–	2.27 µM·h	–	–	–	1.9 µM·h	–	–	3.38 µM/L	510 µM (≈ 137 µg/mL)	no effects
